The values below come from ChEMBL document CHEMBL1157308, “Daphniyunnines A-E, alkaloids from Daphniphyllum yunnanense” (J Nat Prod, 2006).

One test concerns A549. The test is described as follows: Cytotoxicity against human A549 cells. In kind it is functional, cell-based.
A further test relates to P388. In words: Cytotoxicity against mouse P388 cells. In kind it is functional, cell-based.

By IC50 is commonly meant the midpoint of a concentration-inhibition curve. Low values mean higher potency, high ones lower potency. In the case of `C[C@@H]1CN2C[C@H]3CCC4=C5[C@@](O)(CC[C@@]56C(=O)[C@@H]1C[C@@H]2[C@@]36C)CC4=O` [DAPHNIYUNNINE D], the IC50 turned out to be 600 nM in the test with A549 and 3000 nM with P388.
